Columns and labels:
pepsin = pepsin (Sus scrofa, UniProt P00791); experiment: Detection of phosphoproteins in SDS-polyacrylamide gels with binding solution; settings: monophosphorylated protein, binding solution with gallium chloride, SDS polyacrylamide mini-gel
Description: (§1) Proteins were loaded in two-fold dilution series on SDS polyacrylamide mini-gels from 2 ng-1000 ng; each protein sample was done in series in four replicate gels. The phosphoproteins were α-casein (7 or 8 phosphates); dephosphorylated α-casein (1 or 2 phosphates); β-casein (5 phosphates); ovalbumin (2 phosphates) and pepsin (1 phosphate). BSA contains no phosphates and was used as a negative control.
(§2) Phosphoproteins were separated by SDS-polyacrylamide gel electrophoresis utilizing a 4% T, 2.6% C stacking gel, pH 6.8 and 13% T, 2.6% C separating gel, and pH 8.8, according to standard procedures. % T is the total monomer concentration (acrylamide+crosslinker) expressed in grams per 100 mL and % C is the percentage crosslinker (e.g., N,N′-methylene-bis-acrylamide, N,N′-diacryloylpiperazine or other suitable agent). The separating gels were 8 cm wide by 5 cm high and […] in thickness. After electrophoresis, the gels were fixed by immersing them in 100 mL 45% methanol and 5% acetic acid for 90 minutes. The gels were washed twice in water for a total of 30 minutes. The gels were then added to a binding solution of the invention (Example 1E) and incubated for 120 minutes at room temperature with gentle orbital shaking, typically 50 rpm. The binding buffer contained 50 mM NaOAc (pH 4.0), 250 mM sodium chloride, 20% v/v 1,2-propanediol, 1 μM gallium chloride. […]

β-casein = biological target: T1, β-casein (Bos taurus, UniProt P02666); experiment: as above; settings: pentaphosphorylated protein, binding solution with gallium chloride, SDS polyacrylamide mini-gel
T1 sequence (P02666 16-224): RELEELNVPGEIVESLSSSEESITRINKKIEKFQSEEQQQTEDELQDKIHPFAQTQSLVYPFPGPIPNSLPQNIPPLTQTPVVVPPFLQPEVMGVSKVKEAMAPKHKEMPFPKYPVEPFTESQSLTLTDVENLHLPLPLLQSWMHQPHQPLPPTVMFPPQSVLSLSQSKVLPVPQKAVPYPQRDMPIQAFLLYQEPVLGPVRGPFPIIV
Description: as §1, §2

pDSIP = biological target: T2, pDSIP (Oryctolagus cuniculus, UniProt P01158); experiment: Total phosphopeptide detection on microarray with binding solution; settings: 1 μM Compound 2, 1 μM GaCl3, pH 4.0
T2 construct: purchased SynPep Corporation
Description: (A) Three pairs of peptides, the phosphorylated and the non-phosporylated forms of Kemptide, pp60 c-src and DSIP, were arrayed on to HydroGel coated slides (Perkin Elmer) from a source plate (384-well) with a concentration of 0.95 μg/ml-0.5 mg/ml peptide in water, using the BioChip Arrayer™ (Perkin Elmer) as described in Example 20. For specific detection of the phosphopeptides on the array, the slides were incubated for 45 minutes on a rotisserie in a binding solution comprising 1 μM Compound 2, in buffer containing 0.5 M NaCl, 20% 1,2 propanediol, 1 μM GaCl3, and 0.05 M sodium acetate, pH 4.0. Slides were then washed three times for 15 minutes on a rotisserie in 0.05 M sodium acetate, pH 4.0, containing 4% acetonitrile followed by a 15 minute water wash. Slides were then spun briefly in a microarray high-speed centrifuge affixed with a rotor with a slide holder (Telechem) at ˜6000 rpm to remove excess liquid. After slides were dry, the arrays were imaged using the ScanArray® 5000 XL Microarray Analysis System (Packard Instrument Co., Meriden, Conn.) using the 543.5 nm laser and 570 nm emission filter. […] Using the 543.5 nm excitation and 570 nm emission filter, there was no signal detected. Using the 632.8 nm excitation and 670 nm emission filter, pp60 c-src (pY) was specifically detected to a sensitivity of 5.2 pg.

Chain of pepsin (P00791 60-385): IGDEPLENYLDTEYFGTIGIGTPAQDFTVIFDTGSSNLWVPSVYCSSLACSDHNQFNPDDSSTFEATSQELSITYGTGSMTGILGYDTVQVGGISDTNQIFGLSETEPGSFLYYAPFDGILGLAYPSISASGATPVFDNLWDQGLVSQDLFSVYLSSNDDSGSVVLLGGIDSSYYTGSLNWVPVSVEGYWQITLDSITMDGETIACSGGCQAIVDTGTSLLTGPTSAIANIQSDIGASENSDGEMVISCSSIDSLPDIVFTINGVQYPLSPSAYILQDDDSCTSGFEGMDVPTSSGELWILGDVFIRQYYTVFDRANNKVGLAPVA

## Rhod-5F [Compound 2]
pepsin
  amount detectable in gel: 8 ng
β-casein
  amount detectable in gel: 1 to 2 ng
pDSIP
  amount specifically labeled on microarray: 1.3 to 2.6 pg

From US7445894B2, “Compositions and methods for detection and isolation of phosphorylated molecules” (priority 2002, dated 2008)
